Reference: patent publication US20200268720A1, “METHODS OF USE OF A CLASS IIA HDAC INHIBITOR” (GlaxoSmithKline LLC, priority 2016, published 2020)
“Also recorded” adds a separate entry of the source.

Tests used:
tumor macrophages = experiment: New vs. pre-existing macrophage dextran experiment; format: in vivo, mouse; settings: 5 days of TMP195 vs vehicle
Protocol: MMTV-PyMT tumor-bearing mice were injected with 0.25 mg/mouse (10 mpk) low molecular weight (10,000 MW) Alexa555-labelled dextran (Life Technologies D34679) which is readily taken up by phagocytic cells. Mice were then treated for 5 consecutive days with DMSO or TMP195. Two hours before the mice were sacrificed they were injected with 0.25 mg/mouse of another low molecular weight (10,000 MW) dextran, this time labeled with Alexa594 (Life Technologies D22913)14. Tumors were collected as described above and flow cytometry was performed. […] Mice that received only one of the dextran conjugates were used as controls for flow cytometry.

[1] = test system: metastatic lesions in the lung; experiment: Pulmonary metastasis analysis; format: in vivo, mouse
Protocol: Lungs were removed from animals as described above. […] The number of metastatic foci are determined on sections taken every […] throughout the whole lung^3,33 and quantitation was performed blinded by an animal pathologist.

whole MMTV-PyMT tumors = experiment: Gene expression in RNA isolated from whole tumors after two weeks of treatment; format: in vivo, mouse; settings: two weeks TMP195 vs vehicle, n=3 mice per group
Protocol: All procedures were performed at Boston University Microarray Resource Facility as described in the […] ® Whole Transcript (WT) Plus Reagent Kit Manual (Affymetrix, Santa Clara, Calif.). Briefly, the total RNA was isolated using an RNEASY® kit (Qiagen), and the sample integrity was verified using RNA 6000 Pico Assay RNA chips run in Agilent 2100 Bioanalyzer (Agilent Technologies). […] The obtained cDNA was used as a template for in vitro transcription using GeneChip® WT Expression Kit (Life Technologies). […] During this step, dUTP was incorporated. […] IVT and cDNA fragmentation quality controls were carried out by running an mRNA Pico assay in the Agilent 2100 Bioanalyzer. The labeled fragmented DNA was hybridized to the Gene Arrays 1.0ST for 16-18 h in […] ® Hybridization oven 640 at 45° C. with rotation (60 r.p.m.). The hybridized samples were washed and stained using Affymetrix fluidics station 450 as per manufacturer's instruction (Hybridization, Washing and Staining kit, Affymetrix). Microarrays were immediately scanned using Affymetrix GeneArray Scanner 3000 7G Plus (Affymetrix).

MMTV-PyMT tumors [2] = experiment: Depletion experiments (anti-CD11b, anti-CSF1, anti-CD8, anti-CD4, anti-IFNγ); format: in vivo, mouse
Protocol: For CSF1 depletion, mice were injected IP with 1 mg of anti-CSF1 (BioXCell BE0204; clone 5A1) 1 day before treatment with vehicle or compound, and then with 0.5 mg every 5 days^3. For CD11b depletion mice were injected IP with 100 μg of anti-CD11b (clone M1/70; BioLegend 101231) one day before treatment with vehicle or compound, and then every other day.^34 For CD8 immune cell depletion, mice were injected IP with 1 mg anti-CD8 immunoglobulin (BioXCell BE0117; clone YTS169.4) or control IgG2b (BioXCell BE0090; clone LTF-2) on day 1 and then with 0.5 mg every 5 days for 2 week study. For 6-day experiment mice were dosed with: IgG1 (BioXcell BE0088; clone HRPN), α-CD8 (BioXcell BE0117; clone YTS169.4), α-CD4 (BioXcell BE0033-1; clone GK1.5) and α-INFγ (BioXcell BE0055; clone XMG1.2) with 1 mg on day 0 and 0.5 mg on day 4; except α-CD4 which was dosed at 400 μg on day 0 and 400 μg on day 4.

MMTV-PyMT tumors [3] = experiment: Combination with chemotherapy (Carboplatin, Paclitaxel) in MMTV-PyMT mice; format: in vivo, mouse
MMTV-PyMT tumors [4] = test system: MMTV-PyMT tumors
Protocol: For all transgenic mouse experiments virgin female FVB/N transgenic mice carrying the polyoma middle T (PyMT) transgene under the control of the mammary tumor virus (MMTV) promoter were used. All mice were maintained within the Dana-Farber Cancer Center (DCFI) animal facility and all experiments involving animals were conducted in accordance with the GSK Policy on the Care, Welfare and Treatment of Laboratory Animals and were reviewed and approved by the DFCI Institutional Animal Care and Use Committee approved. MMTV-PyMT transgenic mice were obtained from The Jackson Laboratory (002374). Mice that were approximately 80 days old were enrolled into the study when their tumor burden was between 300-600 mm^3, unless otherwise noted. Although female mice have 10 mammary fat pads, tumors from mammary fat pad positions 5 and 10 were excluded from all experiments and analysis. Caliper measurements were used to calculate the tumor volume from each mammary tumor using [(Length×Width^2)/2]. The sum of the volume from each tumor on a mouse was combined to generate “total tumor burden”. At the indicated time points animals were euthanized in a CO2 chamber before performing a cardiac perfusion with normal saline. Lungs and tumors were then removed for analysis.
Tumors were extracted and fixed in 10% formalin overnight. Tumors were embedded in paraffin and sectioned at the Rodent Pathology Core at Harvard Medical School. Preceding immunohistochemical staining, tumor sections were exposed to two washes with Histo-Clear II (National Diagnostics, cat. #HS-202), two washes with 100% ethanol, and subsequent hydration with washes of 90%, 80%, 70%, and 50% ethanol. Antigen unmasking was achieved by heating sections in 10 mM sodium citrate buffer (pH 6.0). After cooling, sections were washed in dH20, incubated in 3% Hydrogen peroxide for 10 minutes at room temperature, washed in dH20 again, and then washed in 1×PBS. Antigen blocking was carried out by incubating sections in PBS buffer containing 0.5% Tween, 1% BSA plus 5% serum for 1 hour at room temperature. Sections were then stained in block buffer containing primary antibody (anti-mouse F4/80, clone BM8, BioLegend cat. #123101, 1:50; anti-mouse CD11b, clone EPR1344, ABCAM® cat. #ab133357, 1:50; anti-mouse cleaved caspase-3 (Asp175), Cell Signaling Technology cat. #9661S, 1:300; anti-mouse CD34, clone MEC14.7, BioLegend cat. #119301, 1:100; anti-mouse Ki-67, clone D3B5, BioLegend cat. #12202S, 1:400; CD40 Abcam (ab13545) 1:200); 1:200 Mac-2 (BioLegend cat. #125403, clone M3/38) overnight in a wet chamber at 4° C. in the dark. The following day, sections were washed three times in 1×PBS and stained with secondary biotinylated antibody in PBS block buffer for 1 hour at room temperature. Sections were washed three times with 1×PBS and Elite Vectastain ABC Kit (Vector Laboratories, PK-6100) was applied for 30 minutes per manufacturer's instructions at room temperature in the dark. Sections were washed with 1×PBS, developed with DAB reagent (Peroxidase Substrate Kit, Vector Laboratories, cat. #5K4100), and counterstained with hematoxylin. Sections were then exposed to two washes with dH20, one wash with 1×PBS, and subsequent washes of increasing ethanol concentration for dehydration followed by incubation in Histo-Clear II. Slides were mounted with VectaMount Permanent Mounting Medium (Vector Laboratories, H-5000) and No. 1 glass coverslips (Denville Scientific, cat. #M1100-02) and allowed to cure for 24 hours. Sections were viewed with an Olympus BX43 Trinocular Microscope. For all IHC quantitation ten randomly selected fields from at least 4 different tumors in each treatment group were used to quantitate the percent of tissue positive for each marker using ImageJ software^32. Images were converted to a greyscale red-green-blue (RGB) stack. Positive stain in the “blue” greyscale image was quantified at the appropriate threshold as % total image area positive for stain.

[5] = test system: human monocytes, T or B cells; settings: cited from earlier work
[6] = TMP195 50 mg/kg IP daily plus PTX 10 mg/kg IV
[7] = 50 mg/kg TMP195 IP daily, 5 days vs DMSO

## CC(C)(CNC(=O)c1cccc(-c2noc(C(F)(F)F)n2)c1)c1coc(-c2ccccc2)n1 [TMP195, N-(2-methyl-2-(2-phenyloxazol-4-yl)propyl)-3-(5-(trifluoromethyl)-1,2,4-oxadiazol-3-yl)benzamide]
Tumor macrophages
  number of new macrophages in the tumor: increases
  number of pre-existing macrophages in the tumor: not and without affecting
[1]; initial tumor burden <400 mm^3, 24 days of treatment
  metastatic lesions in the lung: significant decrease
[1]; tumor burden 200-600 mm^3 at start, 14 days of treatment
  metastatic pulmonary lesions: decrease
Whole MMTV-PyMT tumors
  differential gene expression in whole tumor RNA: overall lack of differential gene expression
MMTV-PyMT tumors [2]; TMP195 50 mg/kg IP daily plus anti-CD11b
  anti-tumor efficacy with myeloid cell depletion (anti-CD11b): abrogated the efficacy
MMTV-PyMT tumors [2]; TMP195 50 mg/kg IP daily plus anti-CSF-1
  anti-tumor efficacy with macrophage depletion (anti-CSF-1): abrogated the efficacy
MMTV-PyMT tumors [2]; TMP195 plus anti-IFNγ antibody
  CD34 staining in tumor sections with IFNγ neutralization: failed to normalize CD34 staining
MMTV-PyMT tumors [2]; TMP195 plus α-CD4, 6 days
  autochthonous tumor burden with CD4+ cell depletion: reduced
MMTV-PyMT tumors [2]; TMP195 plus α-CD8
  single agent efficacy with CD8+ cell depletion: prevented the single agent efficacy
MMTV-PyMT tumors [2]; TMP195 plus α-IFNγ
  Granzyme B+ CD8+ T cells in tumors with IFNγ neutralization: disappearance
MMTV-PyMT tumors [2]; TMP195 plus α-IFNγ, 6 days
  reduction of tumor burden with IFNγ neutralization: loss of efficacy
MMTV-PyMT tumors [3]; TMP195 50 mg/kg IP daily plus Carboplatin 50 mg/kg IV every 5 days
  tumor burden, combination with Carboplatin: significant reduction in tumor burden compared to either monotherapy
MMTV-PyMT tumors [3]; [6]
  durability of efficacy, combination of TMP195 and PTX: at least 29 days
  durability, combination of TMP195 plus PTX (figure legend): durable for at least one month
MMTV-PyMT tumors [3]; TMP195 50 mg/kg IP daily plus Paclitaxel 10 mg/kg IV every 5 days
  tumor burden, combination with Paclitaxel: significant reduction in tumor burden compared to either monotherapy
MMTV-PyMT tumors [4]; [7]
  proportion of myeloid (CD11b+) and mature macrophages (Mac-2+, CD115+, F480+) in tumors: increased proportion
  proportion of other tumor infiltrating immune cells examined: without affecting
MMTV-PyMT tumors [4]; 5 days of TMP195 treatment
  MHCII+CD11bhi (MTM) cell population in tumors: increase
  proportion of pro-tumor TAMs (MHCII+CD11blo): decrease; also recorded: significant reduction
MMTV-PyMT tumors [4]; 5 days of TMP195 vs vehicle
  cytotoxic T lymphocytes in tumors (Granzyme B+ of CD45+CD3+CD8+ cells): significantly increases; also recorded: increase
MMTV-PyMT tumors [4]; TMP195 treatment
  proportion of CD8+ T cells in the tumor: does not change
[5]; previous report
  gene expression of monocytes and lymphocytes: altered monocyte gene expression without affecting that of lymphocytes
[5]; previously reported
  direct cytotoxicity to human monocytes, T or B cells: not directly cytotoxic
